{"source": "paper PMC5335257", "about": "“Promoting in vivo remyelination with small molecules: a neuroreparative pharmacological treatment for Multiple Sclerosis” (Scientific Reports, 2017)", "system": "adult human OPCs", "assay": "Differentiation assay, adult human OPCs", "assay_type": "cell-based", "experimental": "Human brain samples were obtained from adult patients of temporal lobe epilepsy resistant to pharmacological treatment or traumatic brain injury; they underwent surgical treatment by the Neurosurgery Service at the Hospital Universitario de La Princesa (Madrid, Spain) and Hospital 12 de Octubre (Madrid, Spain). All tissue samples were obtained under protocols approved by the Research Ethics Committee of Toledo (Spain) review boards. All were conducted in accordance with the Helsinki Declaration and were approved by the Research Ethics Committee of Toledo (Spain). All patients provided informed consent prepared under the guidelines of the Research Ethics Committee at their respective hospital in Madrid (Spain).\nFor cells obtained from human biopsies, the same protocol was used except that papain solution was used 1:2.5 in HBSS for 10 minutes for meningeal disintegration and 1:10 in HBSS for 15 minutes for the tissue digestion, 25 cm[2] flasks were used, the medium was supplemented with 10 ng/ml of human PDGF-AA (Millipore) for 2 weeks and then incubated for 2 more weeks without growth factors before shaking and the shaking was carried out at 230 rpm instead of 250 rpm.\nPurified OPCs were placed on coverslips coated with poly-L-lysine and laminin in 24-well tissue culture dishes at a density of 2 × 10^4 cells/well. To promote differentiation, the cells were maintained in the differentiation medium (described above) and PDE7-GSK3 or GSK3 inhibitors (VP3.15 or TDZD8; 1 μM) were added to the culture medium. Different controls were used for the dual or single inhibitors due to the active substance being dissolved in differing amounts of DMSO. After 5, 7 and 10 DIV the cells were fixed with 4% PFA for further immunocytochemical analysis. Anti-CNPase antibodies (1:200;Covance; Cat#SMI-91R), anti-MBP antibodies (1:200; Serotec; Cat#MCA4095) for detecting oligodendrocytes and anti-Olig2 antibodies (1:250; Millipore; Cat#AB9610) as a marker for all oligodendroglial stages were used. Ten random fluorescence digital images were taken in each coverslip with a DFC480 FX digital camera (Leica) coupled to a Leica DM5000 B microscope for quantification. Data were expressed as a mean ratio of differentiated oligodendrocytes (CNPase^+-Olig2^+ double positive cells) with respect to total Olig2^+ cells ± SEM or percentage of CNPase^+ cells respect to control ± SEM, in at least three independent experiments, except with human samples (two independent experiments)."}
{"smiles": "c1ccc(-c2n/c(=N/CCN3CCOCC3)sn2-c2ccccc2)cc1", "note": "[VP3.15]", "values": [{"measurement": "number of CNPase+-Olig2+ cells vs control (differentiation)", "setting": "adult human OPCs, 1 μM, 5 DIV", "value": "significantly increased"}, {"measurement": "number of primary cytoplasmic processes", "setting": "adult human oligodendrocytes, control 2.9 ± 0.21, p = 0.72", "value": "2.75 ± 0.20"}, {"measurement": "number of cytoplasmic subprocesses", "setting": "adult human oligodendrocytes, control 4.3 ± 0.2, p = 0.83", "value": "4.8 ± 0.43"}]}
